Literature values as cited in article PMC7395068, “The evolution of strategies to minimise the risk of human drug-induced liver injury (DILI) in drug discovery and development” (Archives of Toxicology, 2020).
Read-outs that look alike come from different tables or passages of the source.

Assays:
[1] = system: primary human hepatocytes, NIH3T3 fibroblasts, BSEP, CYP3A4; settings: In vitro Assay; ref Schadt 2015; cited from earlier work
[2] = system: rBsep; settings: cited from earlier work
[3] = system: isolated mouse liver mitochondria; settings: In vitro Assay; ref Porceddu 2012; cited from earlier work
[4] = cited from earlier work
[5] = system: PHH spheroids; settings: cited from earlier work; for hLiMTs ATP <20 x Cmax: In vitro Assay, ref Vorrink 2018
[6] = ref Chen 2016; cited from earlier work
[7] = system: THLE-Null and THLE-3A4 cells; settings: In vitro Assay; ref Gustafsson 2014; cited from earlier work
[8] = system: HepG2 cells; settings: In vitro Assay; ref Persson 2013; cited from earlier work
[9] = system: HepG2 cells, primary human hepatocytes; settings: In vitro Assay; ref Garside 2014; cited from earlier work
[10] = system: human hepatocytes; settings: In vitro Assay; ref Xu 2008; cited from earlier work
[11] = system: HepG2 cells; settings: In vitro Assay; ref O'Brien 2006; cited from earlier work
[12] = system: THLE or HepG2 cells, isolated mitochondria, BSEP; settings: In vitro Assay; ref Aleo 2019; cited from earlier work
[13] = system: PHH; settings: In vitro Assay; ref Proctor 2017; cited from earlier work
[14] = system: hLiMTs; settings: In vitro Assay; ref Proctor 2017; cited from earlier work
[15] = In vitro Assay, ref Dawson 2012

SMILES	Inhibition of rBsep cutoff<1& cmax u>.2 [2, 15]	Inhibition of rBsep cutoff<3 [2, 15]	In vivo DILI ([4]; […])	In vivo DILI ([4]; ref Dawson 2012)	In vivo DILI ([4]; ref Garside 2014)	In vivo DILI ([4]; ref Gustafsson 2014)	In vivo DILI ([4]; ref Schadt 2015)	In vivo DILI ([4]; ref Vorrink 2018)	hLiMTs ATP <20 x Cmax [5]	DILI +VE (5-8), DILI -VE (-4) [6]	DILI severity category [6]	THLE-Null [7]	THLE-Null/3A4 [7]	Cluster 1-6 +VE Assay [9]	In vivo DILI ([4]; ref Xu 2008)	Structural based (HCI) [10]	other results
CCCN(CCC)C(=O)Cc1c(-c2ccc(Cl)cc2)nc2ccc(Cl)cn12 [alpidem]	+VE	+VE	+VE	+VE	+VE	+VE	+VE	+VE	+VE (IC20 < 20 × Cmax.tot cut-off)	+VE	vMost-DILI-Concern	-VE	-VE	+VE	–	–	Cellular toxicity (3T3 cells) [1]: -VE; Combined Assay [1]: -VE; GSH adduct HML [1]: +VE; Hepatocyte cellular toxicity [1]: +VE; MitoTox 3T3 [1]: -VE; TDI CYP3A4 [1]: -VE; hBSEP inhibition [1]: +VE; in vitro data EC2<=1x Cmax [3]: +VE; in vitro data EC20<=2uM [3]: +VE; In vivo DILI ([4]; ref Persson 2013): +VE; In vivo DILI ([4]; ref Porceddu 2012): +VE; Cluser analysis [8]: +VE; Structural based (HCI) [8]: +VE
CC(C)(Oc1ccc(CCNC(=O)c2ccc(Cl)cc2)cc1)C(=O)O [bezafibrate]	-VE	-VE	–	+VE	+VE	+VE	-VE	-VE	-VE	–	–	-VE	-VE	-VE	-VE	-VE	Cellular toxicity (3T3 cells) [1]: -VE; Combined Assay [1]: -VE; GSH adduct HML [1]: -VE; Hepatocyte cellular toxicity [1]: -VE; MitoTox 3T3 [1]: -VE; TDI CYP3A4 [1]: -VE; hBSEP inhibition [1]: -VE; In vivo DILI ([4]; ref O'Brien 2006): -VE; Structural based (HCI) [11]: +VE
O=C(O)[C@H]1/C(=C/CO)O[C@@H]2CC(=O)N21 [clavulanate]	-VE	-VE	-VE	+VE	+VE	+VE	+VE	–	–	–	–	-VE	-VE	-VE	–	–	Cellular toxicity (3T3 cells) [1]: -VE; Combined Assay [1]: -VE; GSH adduct HML [1]: -VE; Hepatocyte cellular toxicity [1]: -VE; MitoTox 3T3 [1]: -VE; TDI CYP3A4 [1]: -VE; hBSEP inhibition [1]: -VE
NNc1nnc(NN)c2ccccc12 [dihydralazine]	-VE	-VE	–	+VE	+VE	+VE	–	+VE	+VE (IC20 < 20 × Cmax.tot cut-off)	–	–	-VE	-VE	+VE	–	–	–
CCN(CC)C(=S)SSC(=S)N(CC)CC [disulfiram]	–	–	–	–	–	–	–	–	+VE (IC20 < 20 × Cmax.tot cut-off)	–	–	+VE	–	+VE	–	–	in vitro data EC2<=1x Cmax [3]: +VE
NCCc1ccc(O)c(O)c1 [dopamine]	-VE	-VE	–	-VE	-VE	-VE	–	-VE	-VE	-VE	vNo-DILI-Concern	-VE	-VE	-VE	-VE	-VE	–
CC(=O)O[C@H]1C[C@@]2(C)[C@@H](C[C@@H](O)[C@H]3[C@@]4(C)CC[C@@H](O)[C@@H](C)[C@@H]4CC[C@@]32C)/C1=C(\CCC=C(C)C)C(=O)O [fusidic acid]	+VE	+VE	–	–	–	–	–	–	–	–	–	+VE	–	-VE	–	–	–
O=C(OCC(O)CO)c1ccccc1Nc1ccnc2cc(Cl)ccc12 (centres unmarked) [glafenine]	+VE	+VE	+VE	+VE	+VE	+VE	–	+VE	-VE	+VE	vMost-DILI-Concern	-VE	+VE	+VE	+VE	-VE	–
Cc1ccc(S(=O)(=O)NC(=O)NN2CC3CCCC3C2)cc1 (centres unmarked) [gliclazide]	-VE	-VE	–	+VE	+VE	+VE	–	–	–	–	–	-VE	-VE	-VE	-VE	-VE	–
CC(C)NNC(=O)c1ccncc1 [iproniazid, reference compound]	-VE	-VE	+VE	+VE	+VE	+VE	–	+VE	-VE	+VE	vMost-DILI-Concern	-VE	-VE	-VE	–	–	Partition Hybrid HRM Score [12]: -VE; Ro2 Hybrid HRM Score [12]: -VE; In vivo DILI ([4]; ref Aleo 2019): +VE; In vivo DILI ([4]; ref Persson 2013): +VE; response of PHH spheroids at 5 × Cmax.tot ([5]; ATP, 14 days, not positive at higher concentrations, ref Vorrink et al. 2018): positive; Cluser analysis [8]: -VE; Structural based (HCI) [8]: +VE
CN(C)CCN(Cc1cccs1)c1ccccn1 [methapyrilene]	–	–	–	-VE	-VE	-VE	–	-VE	-VE	–	–	-VE	–	-VE	–	–	In vivo DILI ([4]; ref O'Brien 2006): +VE; Structural based (HCI) [11]: +VE
CNC(=O)Oc1ccc2c(c1)[C@]1(C)CCN(C)[C@@H]1N2C [physostigmine]	–	-VE	–	-VE	-VE	-VE	–	-VE	–	-VE	vNo-DILI-Concern	-VE	-VE	-VE	–	–	Inhibition of rBsep cutoff<1& cmax u>.2 [2]: -VE
CC(N/C(=N\C#N)Nc1ccncc1)C(C)(C)C (centres unmarked) [pinacidil]	-VE	+VE	–	–	–	–	–	–	-VE	–	–	-VE	-VE	+VE	–	-VE	In vivo DILI ([4]; in vivo): -VE; Cluser analysis [8]: -VE; Structural based (HCI) [8]: -VE; Structural based (HCI) [11]: -VE
CC(=O)Nc1ccc(OCC(O)CNC(C)C)cc1 (centres unmarked) [practolol]	-VE	-VE	–	–	–	–	–	–	-VE	–	–	-VE	–	-VE	–	–	–
CCCN(CCC)S(=O)(=O)c1ccc(C(=O)O)cc1 [probenecid]	-VE	-VE	–	+VE	+VE	+VE	-VE	–	–	-VE	Ambiguous DILI-concern	-VE	-VE	+VE	–	–	Cellular toxicity (3T3 cells) [1]: -VE; Combined Assay [1]: -VE; GSH adduct HML [1]: -VE; Hepatocyte cellular toxicity [1]: -VE; MitoTox 3T3 [1]: -VE; TDI CYP3A4 [1]: -VE; hBSEP inhibition [1]: -VE
CN(CCOc1ccc(CC2SC(=O)NC2=O)cc1)c1ccccn1 (centres unmarked) [rosiglitazone]	-VE	+VE	-VE	+VE	+VE	+VE	+VE	-VE	-VE	+VE	vLess-DILI-Concern	–	–	+VE	-VE	-VE	In vivo DILI ([4]; ref Aleo 2019): +VE; In vivo DILI ([4]; ref O'Brien 2006): -VE; In vivo DILI ([4]; ref Proctor 2017): +VE; In vivo DILI ([4]; ref Williams 2019): +VE; PHH ATP <100uM [13]: -VE; hLiMTs ATP <100uM [14]: +VE (IC50 threshold of 100 µM); Structural based (HCI) [11]: -VE
